US11446269B2, “Methods of reducing or preventing oxidation of small dense LDL or membrane polyunsaturated fatty acids” (Amarin Pharmaceuticals Ireland Limited, priority 2014, dated 2022)

How the values were obtained:
[1] = Lipid hydroperoxide (LOOH) formation in cholesterol-enriched DLPC model membranes under autoxidation (Example 3); assay type: biochemical; details: EPA:lipid 1:30, C/P 0.6:1, autoxidation 37° C. 72 hours, vs untreated controls
Protocol: Levels of lipid hydroperoxides were also measured in cholesterol-enriched membrane prepared in the absence of EPA as a control. […] CHOD-iodide color reagent (stock) was prepared according to a procedure modified from El-Saadani et […], Goher […], Jurgens G. A spectrophotometric assay for lipid peroxides in serum lipoproteins using commercially available reagent. J. Lipid. […] Membrane samples consisting of DLPC±cholesterol were prepared as follows. Component lipids (in chloroform) were transferred to 13×100 mm test tubes and shell-dried under a steady stream of nitrogen gas while vortex mixing. The lipid was co-dried with EPA. Residual solvent was removed by drying for a minimum of 3 h under vacuum. After desiccation, each membrane sample was resuspended in diffraction buffer (0.5 mM HEPES, 154 mM NaCl, pH 7.3) to yield a final phospholipid concentration of 1.0 mg/mL. Multilamellar vesicles (MLV) were formed by vortex mixing for 3 minutes at ambient temperature. […] Absorbances were measured against a CHOD blank at 365 nm using a Beckman DU-640 spectrophotometer. The CHOD colorimetric assay is based on the oxidation of iodide (I^-) by lipid hydroperoxides (LOOH) and proceeds according to the following reaction scheme: […]3^- The quantity of triiodide anion (I3^-) liberated in this reaction is directly proportional to the amount of lipid hydroperoxides present in the membrane sample.

[2] = Glucose-induced membrane lipid peroxidation (LOOH, CHOD-iodide assay) in DLPC/cholesterol multilamellar vesicles (Example 4); assay type: biochemical
Protocol: Vitamin E (α-tocopherol) was also purchased from Sigma-Aldrich and prepared in ethanol at 1.0 mM (ε=3.06×10^4 M^−1 cm^−1 at 294 nm) just prior to experimental use. […] All test compounds were further diluted in ethanol or aqueous buffer as needed. Glucose was prepared in saline buffer (0.5 mM HEPES, 154 mM NaCl, pH 7.3) at 11.0 mM (200 mg/dL). CHOD-iodide color reagent (stock) was prepared, with slight modification, as described by from El-Saadani et al. (J. […] Samples were shell-dried under nitrogen gas and placed under vacuum for 1 h to remove residual solvent. […] Lipid suspensions were then vortexed for 3 min at ambient temperature to form MLVs. All MLV samples were subjected to time-dependent autoxidation by incubating at 37° C. in an uncovered, shaking water bath. This method allows lipid peroxidation to occur gradually without requiring the use of exogenous initiators. Small aliquots (5-100 μL) of each sample were removed, immediately following MLV preparation (0 hour) and after exposing samples to oxidative conditions for 72 or 96 hour, and combined with 1.0 mL of activated CHOD-iodide color reagent. Aliquot volume was reduced with each successive time point to ensure that spectrophotometric readings were within the optimal adsorption range. Test samples were covered and incubated in darkness at room temperature for at least 4 hr. Sample absorbances were then measured against a CHOD blank at 365 nm using a Beckman DU-640 spectrophotometer. The CHOD colorimetric assay is based on the oxidation of iodide (I^−) by lipid hydroperoxide (LOOH) to form triiodide (I3^−), the quantity of which is directly proportional to the amount of LOOH present in the lipid sample. The molar absorptivity (c) of I3^− is 2.46×10^4 M^−1 cm^−1 at 365 nm. […] The concentration of glucose selected was consistent with previous experimental studies of hyperglycemia under controlled laboratory conditions or observed in well-defined animal models of Type II diabetes following a glucose challenge. […] Values in FIG. 1 are mean±S.D. (N=6). EPA inhibited the peroxidative effects of glucose by 88% and 86% at 72 and 96 hours, respectively, which was highly significant (p<0.001) as compared to glucose treatment alone. […] Overall ANOVA—0 hour data: p=0.6655, F=0.4185; 72 hour data: p<0.0001, F=428.72; 96 hour data: p<0.0001, F=322.01.

human sdLDL = test: Copper-induced sdLDL oxidation, TBARS after 2 hr (Example 6); assay type: biochemical; details: 10 μM CuSO4, vs vehicle
Protocol: Venous blood was collected from healthy volunteers into vacutainer tubes containing sodium EDTA. Plasma was separated by centrifugation at 3000 g for 25 min at 4° C. and adjusted to a density of 1.020 g/mL with KBr. Triglyceride-rich lipoproteins (TGRL) and LDL fractions were then isolated by sequential centrifugation at 70,000 rpm at 4° C. in a Beckman LE-80 ultracentrifuge using a Beckman 50.4Ti rotor (Beckman Coulter, Inc., Fullerton, Calif.). The TGRL fraction (with a relative density of <1.020) was aspirated from the top of the centrifugate and discarded, leaving an LDL-enriched infranate (with a relative density of 1.020 to 1.063). The plasma LDL fraction was further fractionated into LDL1, LDL2, LDL3, and LDL4 (sdLDL) subfractions with relative densities of 1.020 to 1.035, 1.035 to 1.050, 1.050 to 1.063, and 1.063 to 1.075, respectively. The sdLDL subfraction was retained for additional experimentation. Plasma and lipoprotein fractions were maintained at 4° C. and protected from excessive exposure to light. Prior to oxidation experiments, EDTA was removed from the lipoprotein fraction using PD-10 desalting columns (GE Healthcare, Piscataway N.J.). After equilibration of the column with phosphate buffered saline (PBS), 2.5 mL of the lipoprotein fraction was loaded on the column and the flow-through discarded. The lipoprotein was then eluted with 3 mL of PBS. The LDL fractions were further diluted with PBS to obtain a 100 μg/mL apoB100 concentration.
LDL and sdLDL subfractions (0.6 mL each) were incubated with either 10 μL vehicle (ethanol) or 10 μL drug stock solution for 30 min to 1 hr at 37° C. Oxidation was initiated by the addition of 10 μM CuSO4. After 2 hr, 100 μL aliquots were removed from each subfraction and combined with 1.0 mL thiobarbituric acid (0.5%), 10 μL trichloroacetic acid (5%), 10 μL BHT (5 mg/mL in methanol), and 10 μL EDTA (5 mM). […]. Sample TBARS concentrations were determined spectrophotometrically by measuring sample absorbances against a standard curve derived from the hydrolysis of 1,1,3,3-tetramethoxypropane.

sdLDL = test: Copper-induced sdLDL oxidation (Example 12); assay type: biochemical, human; details: 10.0 μM, copper-induced oxidation 1 hour, vs vehicle

Structure (SMILES): CC/C=C\C/C=C\C/C=C\C/C=C\C/C=C\CCCC(=O)O [EPA, cis-5,8,11,14,17-eicosapentaenoic acid]
- reduction of LOOH levels [1]: greater than 90%
- antioxidant effect on glucose-induced LOOH formation ([2]; 1.0 μM, glucose 200 mg/dL, 96 hours): potent antioxidant effects
- effect on LOOH formation / lipid peroxidation ([2]; 72- and 96-hour time points, 1:30 drug-to-phospholipid mole ratio, glucose 200 mg/dL): significantly inhibited LOOH formation
- effect on membrane LOOH formation ([2]; tested at 1.0 and 5.0 μM, glucose-treated): inhibit membrane LOOH formation in a dose-dependent manner
- reduction of TBARS levels (human sdLDL; 1.0 μM): 13%
- reduction of TBARS levels (human sdLDL; 10.0 μM): 57%
- reduction of sdLDL oxidation (sdLDL): > 90%
